Measurements as given in patent US5306824A, “Biotinylated isocoumarins” (Georgia Tech Research Corporation, priority 1992, dated 1994).

What was measured:
chymotrypsin = chymotrypsin (Bos taurus, UniProt P00766); assay: Inactivation of chymotrypsin by biotin-isocoumarins (incubation method); assay type: biochemical, bovine; settings: pH 7.5, inhibitor 20-400 μM; 0.1 M Hepes, 0.5 M NaCl, pH 7.5, 5-10% Me2SO, 25° C.; two values given for some compounds; read-out: kobs/[I] Chymotrypsin
Protocol: (§1) Inactivation rates of serine proteases by substituted isocoumarins were measured by the incubation method. An aliquot of inhibitor (25 or 50 μl) in Me2 SO was added to a buffered enzyme solution (0.01-2.3 μM) to initiate the inactivation. Aliquots (50-100 μl) were withdrawn at various intervals and the residual enzymatic activity was measured. Me2 SO concentration in the reaction mixture was 8-12% (v/v). 0.1M Hepes, 0.5M NaCl, pH 7.5 buffer was utilized for the assays of chymotrypsin, cathepsin G (cat G), porcine pancreatic elastase (PPE), human leukocyte elastase (HLE) and rat granule serine proteases. 0.1M Hepes, 0.01M CaCl2, pH 7.5 buffer was utilized for the assays of trypsin and human recombinant (HR) granzyme A. The inhibitor concentrations are shown in the Tables I and II. Peptide nitroanilides with appropriate sequence were used as substrates for various serine proteases. All peptide 4-nitroanilide hydrolysis was measured at 410 nm (ε410 =8800M^-1 cm^-1; Erlanger et al., Arch. Biochem. Biophys. 95, pp 271-278 (1961), incorporated herein by reference). Peptide thioester hydrolysis rates were measured with assay mixtures containing 4,4'-dithiodipyridine (ε324 =19800M^-1 cm^-1; Grasetti & Murray, Arch. Biochem. Biophys. 119, pp. 41-49 (1967), incorporated herein by reference). First order inactivation rate constant (kobs) were obtained from plots of ln (vt /vo) vs time, and the correlation coefficients were greater than 0.98.
(§2) ^a Inhibition was measured in 0.1 M Hepes, 0.5 M NaCl (or 0.01 M
(§3) CaCl2), pH 7.5 buffer, 5-10% Me2 SO and at 25° C.
(§4) SucVal-Pro-NA (0.48 mM) was used as the substrate for chymotrypsin and ca
^b Inhibitor concentrations were 20-400 μM.

cathepsin G (cat G) = target: T1, cathepsin G (cat G) (Homo sapiens, UniProt P08311); assay: Inactivation of cathepsin G by biotin-isocoumarins (incubation method); assay type: biochemical; settings: inhibitor 75-400 μM, pH 7.5, 25° C.; for kinact/KI: NI = no inhibition after 10 min of incubation, read-out: kobs/[I] Cat. G
T1 sequence (P08311 21-255): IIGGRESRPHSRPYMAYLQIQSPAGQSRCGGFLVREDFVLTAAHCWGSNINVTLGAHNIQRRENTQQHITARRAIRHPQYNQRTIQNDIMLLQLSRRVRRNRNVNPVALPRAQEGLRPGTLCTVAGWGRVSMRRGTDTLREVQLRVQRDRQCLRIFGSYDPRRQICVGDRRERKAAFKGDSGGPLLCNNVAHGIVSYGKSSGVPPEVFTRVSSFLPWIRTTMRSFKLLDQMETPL
Protocol: as §1, §2, §3, §4
(§5) G. MeOSuc-Ala-Ala-Pro-Val-NA (0.24-0.47 mM) and SucAla-Ala-Ala-NA
^c Inhibitor concentrations were 75-400 μM.
(§6) ^h No inhibition after 10 min of incubation of inhibitor and enzyme.
(§7) ^i Percentage of inhibition after 10 min of incubation of inhibitor

[1] = target: T2, human leukocyte elastase (HLE) (Homo sapiens, UniProt P08246); assay: Inactivation of human leukocyte elastase by biotin-isocoumarins (incubation method); assay type: biochemical; settings: inhibitor 1.6-210 μM; pH 7.5, 25° C.; read-out: kobs/[I] HLE
T2 sequence (P08246 30-267): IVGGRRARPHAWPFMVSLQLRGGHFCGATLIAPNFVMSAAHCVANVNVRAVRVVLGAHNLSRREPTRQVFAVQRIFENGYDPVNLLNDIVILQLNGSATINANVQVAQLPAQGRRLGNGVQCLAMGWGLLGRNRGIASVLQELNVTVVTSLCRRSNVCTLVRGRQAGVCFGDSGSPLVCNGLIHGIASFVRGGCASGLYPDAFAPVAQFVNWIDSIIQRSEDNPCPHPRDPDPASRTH
Protocol: as §1, §2, §3, §5
(§8) (0.29-0.48 mM) were used as the substrate for HLE and PPE respectively.
^d Inhibitor concentrations were 1.6-210 μM.

[2] = target: porcine pancreatic elastase (PPE) (Sus scrofa, UniProt P00772); assay: Inactivation of porcine pancreatic elastase by biotin-isocoumarins (incubation method); assay type: biochemical; settings: inhibitor 38-78 μM; pH 7.5, 25° C.; NI = no inhibition after 10 min of incubation; read-out: kobs/[I] PPE
Chain of porcine pancreatic elastase (PPE) (P00772 27-266): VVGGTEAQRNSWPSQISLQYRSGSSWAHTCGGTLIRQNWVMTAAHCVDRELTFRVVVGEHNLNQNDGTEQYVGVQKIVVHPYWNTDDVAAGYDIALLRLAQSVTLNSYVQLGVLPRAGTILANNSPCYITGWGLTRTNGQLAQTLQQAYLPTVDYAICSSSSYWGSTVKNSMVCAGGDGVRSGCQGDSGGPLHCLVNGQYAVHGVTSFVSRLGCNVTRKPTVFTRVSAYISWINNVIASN
Protocol: as §1, §2, §3, §5, §8
^e Inhibitor concentrations were 38-78 μM.
as §6

trypsin = target: T3, trypsin (Bos taurus, UniProt P00760); assay: Inactivation of trypsin by biotin-isocoumarins (incubation method); assay type: biochemical; settings: inhibitor 41-42 μM; 0.1 M Hepes, 0.01 M CaCl2, pH 7.5, 25° C.; read-out: kobs/[I] Trypsin
T3 sequence (P00760 24-246): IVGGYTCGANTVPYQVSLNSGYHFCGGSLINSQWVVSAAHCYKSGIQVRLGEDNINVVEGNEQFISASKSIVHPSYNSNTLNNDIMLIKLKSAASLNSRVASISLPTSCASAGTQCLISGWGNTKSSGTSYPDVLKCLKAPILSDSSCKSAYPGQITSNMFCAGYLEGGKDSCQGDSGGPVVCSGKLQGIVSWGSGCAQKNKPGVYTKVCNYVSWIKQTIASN
Protocol: as §1, §2, §3
(§9) ZGlu-Phe-Arg-NA (0.032 mM) was a substrate for trypsin. ZArg-SBzl (0.120
^f Inhibitor concentrations were 41-42 μM.

PPE [3] = target: T4, PPE (Sus scrofa, UniProt P00772); assay: Reactivation of inhibited PPE in buffer and with NH2OH; assay type: biochemical, porcine
T4 sequence (P00772 27-266): as the sequence (P00772 27-266) above
Protocol: ^a Inhibition was performed at 0.1 M Hepes, 0.5 M NaCl, pH 7.5 buffer
10% Me2 SO and 25° C. Reactivation was carried out in the
presence of 0.4 M of NH2 OH, and occurred immediately after the
^b Enzyme activity was measured after removal of excess inhibitor by
centrifugation at 0° C. with centricon10 microconcentrator and
staying at 25° C. for two days.

PPE [4] = target: T4, PPE; assay: Effect of streptavidin and avidin on reactivation of inhibited PPE; assay type: biochemical, porcine; settings: monitored for two days
Protocol: ^a Percentage of regained enzymatic activity was measured in 0.1 M
Hepes, 0.5 M NaCl, pH 7.5 buffer, 8% Me2 SO and at 25° C.
Excess inhibitor was removed from enzymeinhibitor mixture by
centrifugation twice with Amicon microconcentrator10. Then 3-4 units of
avidin or strepavidin was added and enzymatic activity was monitored for […]

[5] = target: T5, human recombinant (HR) granzyme A (Homo sapiens, UniProt P12544); assay: Inactivation of human recombinant granzyme A by biotin-isocoumarins (incubation method); assay type: biochemical; settings: inhibitor 160-210 μM, pH 7.5, 25° C.
T5 sequence (P12544 29-262): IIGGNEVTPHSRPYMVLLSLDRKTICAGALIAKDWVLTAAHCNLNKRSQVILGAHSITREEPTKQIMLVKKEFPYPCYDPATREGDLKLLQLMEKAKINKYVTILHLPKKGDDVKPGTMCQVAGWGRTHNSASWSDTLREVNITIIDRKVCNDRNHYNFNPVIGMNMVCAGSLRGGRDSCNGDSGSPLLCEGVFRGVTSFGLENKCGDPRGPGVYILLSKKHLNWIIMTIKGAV
Protocol: as §1, §2, §3, §9
mM) was a substrate for human recombinant (HR) granzyme A.
^g Inhibitor concentrations were 160-210 μM.
as §6, §7

PPE [6] = target: T4, PPE; assay: Elution of inhibited PPE from avidin-agarose column with NH2OH; assay type: biochemical, porcine
Protocol: Elution of inhibited PPE by 7-[6-(6-biotinylaminocaproyl)aminocaproyl]amino-4-chloro-3-methoxyisocoumarin from avidin-agarose column with NH2 OH.
PPE (1 mg, […]) was inhibited by biotinylated isocoumarin (0.5 mmole) in 0.1M Hepes, 0.5M NaCl, pH 7.5 buffer at 25° C. for 10 min, 7% of residual enzyme activity was found. Excess of inhibitors was removed by Sephadex G-25 column and the inhibited PPE was eluted with 0.1M acetate, 0.5M NaCl, pH 5.0 buffer and had 16% of enzyme activity. This inhibited enzyme solution was then applied on the avidin-agarose column and 34% of protein went through (measured by optical density at 280 nm). The column was washed with pH 5.0 acetate buffer, then eluted with 0.1M Hepes, 0.5M NaCl, and 0.5M NH2 OH, pH 7.5 buffer and 37% of protein was eluted out (measured by OD280) from the column. In these protein fractions, 40% of PPE activity was detected.

Row | kinact/KI (chymotrypsin) [M⁻¹ s⁻¹] | kinact/KI (cathepsin G (cat G)) [M⁻¹ s⁻¹] | kinact/KI [1] [M⁻¹ s⁻¹] | kinact/KI [2] [M⁻¹ s⁻¹] | kinact/KI (trypsin) [M⁻¹ s⁻¹] | % of Enzyme Activity Reactivated, PPE +NH2OH (PPE [3]; 0.4 M NH2OH, immediately after addition) [%] | % of Enzyme Activity Reactivated, PPE in buffer (PPE [3]; after removal of excess inhibitor, 25° C. for two days, 2880 min) [%] | % of Regained Enzyme Activity, PPE, +Avidin (PPE [4]; 3-4 units avidin, 2880 min) [%] | % of Regained Enzyme Activity, PPE, +Streptavidin (PPE [4]; 3-4 units streptavidin, 2880 min) [%] | % of Regained Enzyme Activity, PPE, Buffer (PPE [4]; pH 7.5, 8% Me2SO, 25° C.) [%] | Percentage of inhibition of HR Granzyme A after 10 min of incubation of inhibitor and enzyme [5] [%] | enzyme activity of inhibited PPE after Sephadex G-25 removal of excess inhibitor (PPE [6]; eluted with 0.1M acetate, 0.5M NaCl, pH 5.0) [%] | PPE activity detected in eluted protein fractions (PPE [6]; fractions eluted with 0.5M NH2OH) [%] | residual enzyme activity of PPE after inhibition (PPE [6]; pH 7.5 buffer, 25° C., 10 min) [%] | Percentage of inhibition of Cat. G after 10 min of incubation of inhibitor and enzyme (cathepsin G (cat G); 10 min) [%] | Structure (SMILES)
1 | 65 | 6.7 | 19900 | 470 | 2.2 | 98 | 35 | 32 | 51 | 35 |  |  |  |  |  | CCCOc1oc(=O)c2cc(NC(=O)CCCC[C@@H]3SC[C@@H]4NC(=O)N[C@@H]43)ccc2c1Cl [Compound 2, 7-biotinylamino-4-chloro-3-propoxyisocoumarin]
2 |  | 2.2 | 37500 |  |  |  |  |  |  |  | 5 | 16 | 40 | 7 |  | COc1oc(=O)c2cc(NC(=O)CCCCCNC(=O)CCCCCNC(=O)CCCCC3SCC4NC(=O)NC43)ccc2c1Cl (stereo not shown) [Compound 6, 7-[6-(6-biotinylaminocaproyl)aminocaproyl]-amino-4-chloro-3-methoxyisocoumarin]
3 |  |  | 6.6 |  |  |  |  |  |  |  | 18 |  |  |  | 19 | O=C(CCCCC1SCC2NC(=O)NC21)NCCNC(=O)CNC(=O)Nc1ccc2c(Cl)c(OCCc3ccccc3)oc(=O)c2c1 (stereo not shown) [Compound 8, 7-biotin-NH(CH2)2 NH--COCH2 NHCONH-4-chloro-3-(2-phenylethoxy)isocoumarin]
